SMILES strings stand for the structures.

One data set addresses T1, P. aeruginosa PPK2B (Pseudomonas aeruginosa, UniProt Q9I154).
T1 construct: MBP (N, cleaved yes); His tag (N, cleaved yes); made in house; host or cells: E. coli BL21(DE3)
Briefly: PPK2B polyP synthesis from ATP, toluidine blue detection. It is filed as biochemical. As to conditions: polyP synthesis from ATP; 275 nM enzyme; read-out: IC50 PPK2B. Here is the method: Compounds were synthesized as outlined in Text S1. Compounds were dissolved in DMSO to make 10 mM stocks and added to a 200 μM final concentration for initial screening. The screen for PPK1 inhibitors was conducted by measuring polyP synthesis activity as described previously ([12]), with the exception of the polyP detection method (see Text S1). The reaction mix contained 50 mM HEPES-KOH, pH 7.5, 40 mM (NH4)2SO4, 4 mM MgSO4, 60 mM creatine phosphate, 0.0625 mg/ml creatine kinase (Sigma; from rabbit muscle), 5 mM ATP, and 275 nM PPK1 (added last). One-hundred-microliter reaction mixtures were incubated at 37°C for 30 min, after which time 50-μl aliquots were withdrawn and added to 1,000 μl of 6-mg/liter toluidine blue dissolved in 40 mM acetic acid to quench the reaction and quantify polyP ([27]). The A630/530 nm ratio was then recorded, and the values obtained were corrected by subtracting the corresponding blanks (all ingredients except enzyme). The amount of polyP synthesized was calculated using a standard curve (Fig. S1A). Any compounds showing 50% or greater reduction in activity relative to the DMSO control were subjected to further IC50 analysis.
All IC50 and kinetic assay mixtures contained equimolar amounts (275 nM) of PPK to ensure valid comparison between different enzymes. PolyP synthesis activity (for PPK1 and PPK2B) was assayed using the reaction buffer and conditions described above. ATP concentration was varied as indicated for kinetic experiments. Curves were fit using GraphPad Prism V9.

In data set [1] the test system is P. aeruginosa. Briefly: C. elegans liquid killing (LK) infection assay. The format is in vivo, Caenorhabditis elegans. As to conditions: 100 μM gallein. As for the experimental part: (§1) Wild-type N2 C. elegans and the glp-4 conditionally sterile mutant strain were obtained from the Caenorhabditis Genetics Center. Liquid killing assays were conducted using glp-4 mutant worms as described previously ([35]), with the exception of survival being scored manually under a Zeiss light microscope instead of via Sytox Orange staining. Nematodes were scored as dead when they no longer moved when tapped. Solid killing was conducted using glp-4 as described previously ([34]), with the indicated concentration of inhibitor impregnated into the SK agar. Bacterial CFU accumulation in WT N2 worms was quantified as described previously ([56]). Briefly, age-synchronized embryos were spotted onto bacterium-seeded nematode growth medium (NGM) agar plates impregnated with inhibitor or DMSO. Embryos were incubated at 25°C for 3 days, after which point adult worms were harvested, washed, lysed, and enumerated for CFU.

For data set [2], the system named is P. aeruginosa. Briefly: C. elegans solid-phase slow killing (SK) infection assay. The format is in vivo, Caenorhabditis elegans. As to conditions: 100 μM gallein. As for the experimental part: as §1
The test system of data set [3] is P. aeruginosa. Nature of the data set: Antibiotic synergy in the C. elegans LK model. As to conditions: for protection of C. elegans in combination with antibiotic: LK assay. It is filed as in vivo, Caenorhabditis elegans. Here is the method:
Assessment of antibiotic synergy in the C. elegans model was adapted from previously described protocols ([25]). Briefly, glp-4 C. elegans worms were incubated at 25°C with P. aeruginosa and the indicated amount of gallein or DMSO in LK medium as described above. After 24 h, antibiotics were added. After another 24 h, C. elegans survival was scored as described above.

In the next data set the test system is HEK293T cells. Nature of the data set: HEK293T cytotoxicity assay, trypan blue. It is filed as cell-based, human. As to conditions: concentrations up to 100 μM, 48 h incubation. As for the experimental part: HEK293 cells were grown in Dulbecco’s modified Eagle’s medium supplemented with 10% fetal bovine serum at 5% CO2 and 37°C. Cells were grown until a confluent monolayer was formed in 12-well culture plates, at which point inhibitors or DMSO was added. After 48-h incubation, cells were detached with trypsin and percent viability was scored via a hemocytometer and trypan blue staining.

The conditions of data set [4]: mice, 5 to 10 mg/kg of body weight daily for up to 8 weeks; cited from earlier work.

T1 sequence (Q9I154 whole entry): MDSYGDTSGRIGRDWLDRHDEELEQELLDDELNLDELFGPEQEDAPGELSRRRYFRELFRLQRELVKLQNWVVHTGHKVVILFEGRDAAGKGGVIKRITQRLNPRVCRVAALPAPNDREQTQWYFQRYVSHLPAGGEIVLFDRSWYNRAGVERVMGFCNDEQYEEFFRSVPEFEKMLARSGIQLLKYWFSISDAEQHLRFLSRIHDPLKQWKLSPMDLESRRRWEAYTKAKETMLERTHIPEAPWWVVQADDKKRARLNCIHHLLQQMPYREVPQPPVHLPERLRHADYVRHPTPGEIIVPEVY

The IC50 is the concentration needed to halve the response being measured. As for `O=C1OC2(c3ccccc31)c1ccc(O)c(O)c1Oc1c2ccc(O)c1O` [RT4 (gallein), gallein], the IC50 at P. aeruginosa PPK2B came out at 20 ± 2 µM. Further, the C. elegans survival entry in the data set with P. aeruginosa [1] and with P. aeruginosa [2] was “significantly improved survival rates” each time. In addition, the “C. elegans antibiotic synergy, Mean Diff.” value in the data set with P. aeruginosa [3] (Cipro (0.75 µg/mL) DMSO vs Cipro (0.75 µg/mL) + 100 µM gallein) was -47.1; in the data set with P. aeruginosa [3] (No antibiotic DMSO vs Cipro (0.75 µg/mL) + 100 µM gallein), -35.08; in the data set with P. aeruginosa [3] (No antibiotic DMSO vs No antibiotic + 100 µM gallein), -16.19; in the data set on P. aeruginosa [3] (No antibiotic DMSO vs Tet (10 µg/mL) + 100 µM gallein), -38.97; in the data set on P. aeruginosa [3] (Tet (10 µg/mL) DMSO vs Tet (10 µg/mL) + 100 µM gallein), -49.51. The “protection of C. elegans in combination with antibiotic” value with P. aeruginosa [3] (in combination with ciprofloxacin) and with P. aeruginosa [3] (in combination with tetracycline) was “achieved greater protection of C. elegans than did gallein or antibiotics alone” in each case. For the same molecule, in the data set on HEK293T cells, the cytotoxicity result is “noncytotoxic”. For the same molecule, the adverse effects entry in data set [4] is listed as “no adverse effects”.
